# Data taken from US10633338B2, “Binding Function 3 (BF3) site compounds as therapeutics and methods for their use” (THE UNIVERSITY OF BRITISH COLUMBIA, priority 2014, dated 2020).
# Target: T1, androgen receptor (AR) (Homo sapiens, UniProt P10275, T878A)
# T1 construct: stably transfected eGFP-expressing LNCaP human prostate cancer cells (LN-ARR2PB-eGFP) containing an androgen responsive probasin-derived promoter; endogenous in cells; host or cells: LNCaP (LN-ARR2PB-eGFP)
# T1 sequence (P10275 1-920 T878A): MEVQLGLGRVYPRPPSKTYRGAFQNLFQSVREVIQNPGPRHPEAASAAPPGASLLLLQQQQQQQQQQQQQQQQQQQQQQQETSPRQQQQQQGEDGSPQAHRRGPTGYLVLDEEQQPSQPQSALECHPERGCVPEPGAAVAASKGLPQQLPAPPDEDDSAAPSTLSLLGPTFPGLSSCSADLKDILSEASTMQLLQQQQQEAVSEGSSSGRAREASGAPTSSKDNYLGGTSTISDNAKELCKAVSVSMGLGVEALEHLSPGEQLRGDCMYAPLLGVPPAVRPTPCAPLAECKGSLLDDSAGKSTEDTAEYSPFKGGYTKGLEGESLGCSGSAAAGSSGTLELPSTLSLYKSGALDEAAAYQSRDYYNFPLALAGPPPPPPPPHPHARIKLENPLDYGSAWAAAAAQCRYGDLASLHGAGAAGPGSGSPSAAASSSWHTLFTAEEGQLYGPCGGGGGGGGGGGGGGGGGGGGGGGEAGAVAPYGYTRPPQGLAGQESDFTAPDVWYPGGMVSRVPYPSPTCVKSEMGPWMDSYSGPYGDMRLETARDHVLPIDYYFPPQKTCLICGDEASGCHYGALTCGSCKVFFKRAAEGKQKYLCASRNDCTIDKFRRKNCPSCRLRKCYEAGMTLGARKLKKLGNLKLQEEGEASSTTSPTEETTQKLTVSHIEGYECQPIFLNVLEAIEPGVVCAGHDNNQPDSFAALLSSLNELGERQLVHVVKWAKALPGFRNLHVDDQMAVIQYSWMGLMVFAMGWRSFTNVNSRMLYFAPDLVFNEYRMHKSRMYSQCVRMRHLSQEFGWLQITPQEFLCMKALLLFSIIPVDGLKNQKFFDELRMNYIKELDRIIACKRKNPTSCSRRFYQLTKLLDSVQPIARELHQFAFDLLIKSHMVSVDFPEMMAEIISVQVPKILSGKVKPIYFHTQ
# Assay: eGFP cellular AR transcription assay
# Format: cell-based
# Details: LN-ARR2PB-eGFP LNCaP cells, 0.1 nM R1881, 3 days, 0-100 μM compound; read-out: IC50 (eGFP); call rule not given here
# Method: After 5 days, the cells were plated into a 96-well plate (35,000 cells/well) with 0.1 nM of the synthetic androgen R1881 and increasing concentrations (0-100 μM) of compound.
# After 5 days, the cells were plated into a 96-well plate (35,000 cells/well) with 0.1 nM R1881 and increasing concentrations (0-100 μM) of compound.
# In this assay, the expression of eGFP is under the control of an androgen responsive probasin-derived promoter and can quantify AR transcriptional activity.
row,SMILES,IC50
1,Fc1cccc2c(-c3ccc4ccccc4n3)c[nH]c12 [13 569],1.6 µM
2,Cc1[nH]c2ccccc2c1-c1ccc2ccccc2n1 [13 570],20 µM
3,c1ccc2nc(-n3ncc4ccccc43)ccc2c1 [13 572],0.7 µM
4,Cc1cc(-c2c[nH]c3ccccc23)nc2ccccc12 [13 547],5.6 µM
5,c1ccc2c(c1)N=C(c1c[nH]c3ncccc13)C21CCCCC1 [13 559],6.6 µM
6,c1ccc(COc2ccc3c(-c4ccc5ccccc5n4)c[nH]c3c2)cc1 [13 589],5.3 µM
7,FC(F)(F)c1ccc2c(-c3ccc4ccccc4n3)c[nH]c2c1 [13 580],2.9 µM
8,c1cncc(-c2c[nH]c3cnccc23)c1 [13 581],4.9 µM

# Further lines, results first:
row,IC50,SMILES
1,7.7 µM,CC1(C)c2ccccc2NC1c1c[nH]c2ccc(N)cc12 (stereo not drawn) [13 538]
2,11.4 µM,CC1(C)c2ccccc2NC1c1c[nH]c2cc(OCc3ccccc3)ccc12 (stereo not drawn) [13 544]
3,10.7 µM,CC1(C)c2ccccc2NC1c1c[nH]c2cnccc12 (stereo not drawn) [13 561]
4,1.6 µM,CC1(C)c2ccccc2NC1c1c[nH]c2c(CO)cccc12 (stereo not drawn) [13 558]
5,11.8 µM,c1ccc(COc2ccc3c(C4Nc5ccccc5C45CCCCC5)c[nH]c3c2)cc1 (stereo not drawn) [13 550]
6,15.5 µM,Oc1ccc2c(C3Nc4ccccc4C34CCCCC4)c[nH]c2c1 (stereo not drawn) [13 551]
7,2.3 µM,CC1(C)c2ccccc2NC1c1c[nH]c2ncccc12 (stereo not drawn) [13 560]

# Same assay, conditions: LN-ARR2PBeGFP LNCaP cells, 0.1 nM R1881, 3 days incubation
row,SMILES,eGFP IC50
1,CC1(C)c2ccccc2NC1c1c[nH]c2c(C(=O)O)cccc12 (stereo not drawn) [Compound 13557],Inactive
2,CC1(C)c2ccccc2NC1c1c[nH]c2c(F)cccc12 (stereo not drawn) [Compound 13555],Inactive

# Same assay, conditions: LN-ARR2PBeGFP LNCaP cells, 0.1 nM R1881, 3 days incubation; read-out: eGFP IC50
row,SMILES,IC50
1,Cc1cccc2c1CCN2c1nc2ccccc2o1 [Compound 13260],2.7 µM
2,Cn1cc(-c2ccc3ccccc3n2)c2ccccc21 [Compound 13571],1.1 µM
3,c1ccc(COc2ccc3c(-c4ccc5ccccc5n4)c[nH]c3c2)cc1 [Compound 13589],5.3 µM
4,Fc1cc2[nH]cc(-c3ccc4cccc(F)c4n3)c2cc1F [Compound 13651],0.404 µM
5,Cc1ccc(F)c2c(-c3ccc4ccccc4n3)c[nH]c12 [Compound 13650],1.63 µM
6,CNC(=O)c1cccc2nc(-c3c[nH]c4c(N5CCOCC5)c(F)c(F)cc34)ccc12 [Compound 13775],3.7 µM
7,c1ccc2c(c1)N=C(c1c[nH]c3cnccc13)C21CCCCC1 [Compound 13559],6.6 µM
8,Clc1ccc(Nc2nc3ccccc3[nH]2)cc1Cl [Compound 13186],5 µM
9,O=C(Nc1nc2ccc(Br)cc2s1)c1ccc(Br)cc1O [Compound 9040],39.1 µM
10,CNC(=O)c1cccc2nc(-c3c[nH]c4c(F)cccc34)ccc12 [Compound 13713],0.037 µM
11,Cc1[nH]c2ccccc2c1SCc1ccccc1F [Compound 13224],5 µM
12,O=c1[nH]c2ccccc2n1-c1nc2ccccc2[nH]1 [Compound 13214],2.2 µM
13,O=C(Nc1nc2ccc(Br)cc2s1)c1ccccc1O [Compound 9039],> 200 µM
14,Cc1cccc2c(-c3ccc4c(-c5cncs5)cccc4n3)c[nH]c12 [Compound 13782],0.11 µM
15,FC(F)(F)c1ccc2c(-c3ccc4ccccc4n3)c[nH]c2c1 [Compound 13580],2.9 µM
16,C(=C(c1ccccc1)c1ccccc1)c1c[nH]c2ccccc12 [Compound 13250],4.7 µM
17,Fc1cccc2c(-c3ccc4ccccc4n3)c[nH]c12 [Compound 13569],1.6 µM
18,c1ccc(-c2ccccc2/N=N/c2c[nH]c3ccccc23)cc1 [Compound 13258],6.8 µM
19,Clc1ccc(Cl)c2c(-c3ccc4ccccc4n3)c[nH]c12 [Compound 13640],12.7 µM
20,Cc1cccc2c(-c3ccc4c(CO)cccc4n3)c[nH]c12 [Compound 13680],0.8 µM
21,Cc1c(F)ccc2c(-c3ccc4cccc(Br)c4n3)c[nH]c12 [Compound 13787],0.19 µM

row,SMILES,IC50
1,N#Cc1cc(F)cc2c(-c3ccc4cccc(Cl)c4n3)c[nH]c12 [Compound 13732],0.42 µM
2,Cc1cccc2c(-c3ccc4cc(F)ccc4n3)c[nH]c12 [Compound 13573],0.56 µM
3,N#Cc1cccc2c(-c3ccc4ccc(F)cc4n3)c[nH]c12 [Compound 13786],0.013 µM
4,O=C(Nc1nc2cc(Br)ccc2s1)c1cc(Br)ccc1O [Compound 9028],10 µM
5,N#Cc1cccc2c(-c3ccc4cccc(Cl)c4n3)c[nH]c12 [Compound 13785],0.036 µM
6,c1ccc2c(c1)CCN2c1nc2ccccc2o1 [Compound 13220],0.7 µM
7,N#Cc1cn(CCCOc2ccccc2Cl)c2ccccc12 [Compound 13232],10 µM
8,Cc1cccn2cc(-c3c[nH]c4ccccc34)nc12 [Compound 13216],2.8 µM
9,Cc1ccc(/N=N/c2c[nH]c3ccccc23)cc1 [Compound 13257],4.2 µM
10,Cn1c(-c2c[nH]c3ccccc23)cc2ccccc21 [Compound 13505],3.4 µM
11,c1ccc2[nH]c(-c3n[nH]c4ccccc34)nc2c1 [Compound 13036],1.6 µM
12,Clc1ccc(N/N=C2\CCc3ccccc32)cc1Cl [Compound 13215],2 µM
13,O=Nn1cc(-c2cc3ccccc3n2N=O)c2ccccc21 [Compound 13206],1.8 µM
14,O=C(Nc1ccc(-n2cnc3ccccc32)cc1)c1ccco1 [Compound 6054],3.4 µM
15,Brc1ccc2nc(-c3c[nH]c4ccccc34)cn2c1 [Compound 13050],9.72 µM
16,C[C@@H]1Cc2ccccc2N1c1nc2ccccc2o1 [Compound 13261],2.1 µM
17,Cc1cccc2c(-c3ccc4nccnc4n3)c[nH]c12 [Compound 13644],3 µM
18,Cn1cc(CCc2ccncc2)c2ccccc21 [Compound 13202],2.5 µM
19,S=C(c1c[nH]c2ccccc12)N1CCOCC1 [Compound 13243],3.9 µM
20,FC(F)(F)c1cccc(/N=C/c2c[nH]c3ccccc23)c1 [Compound 13303],4.5 µM
21,Cc1[nH]c2ccccc2c1-c1ccc2ccccc2n1 [Compound 13570],20 µM

# The next lines start with the values.
row,IC50,SMILES
1,11.8 µM,c1ccc(COc2ccc3c(C4Nc5ccccc5C45CCCCC5)c[nH]c3c2)cc1 (stereo not drawn) [Compound 13550]
2,10.7 µM,CC1(C)c2ccccc2NC1c1c[nH]c2cnccc12 (stereo not drawn) [Compound 13561]
3,3.6 µM,Cn1cc(C2Nc3ccccc3C2(C)C)c2ccccc21 (stereo not drawn) [Compound 13516]
4,2.5 µM,Brc1ccc2[nH]c(-c3nc4ccccc4s3)cc2c1 [Compound 13540]
5,7.7 µM,CC1(C)c2ccccc2NC1c1c[nH]c2ccc(N)cc12 (stereo not drawn) [Compound 13538]
6,6 µM,CC1(C)c2cc(Br)ccc2NC1c1c[nH]c2ccc(Br)cc12 (stereo not drawn) [Compound 13512]
7,11.4 µM,CC1(C)c2ccccc2NC1c1c[nH]c2cc(OCc3ccccc3)ccc12 (stereo not drawn) [Compound 13544]
8,20 µM,O=C(/C=C/c1c[nH]c2cc(Br)ccc12)c1cc2ccccc2[nH]1 [Compound 9034]
9,11.7 µM,O=C(Nc1n[nH]c2ccc(Br)cc12)c1cc(Br)ccc1O [Compound 9026]
10,2.5 µM,Brc1ccc2cc(CCc3cc4ccc(Br)cc4[nH]3)[nH]c2c1 [Compound 9043]
11,5.7 µM,CC1(C)c2cc(Br)ccc2NC1c1c[nH]c2cc(O)ccc12 (stereo not drawn) [Compound 13542]
12,7.72 µM,O=C(Nc1n[nH]c2cc(Br)ccc12)c1cc(Br)ccc1O [Compound 9027]
13,10.3 µM,Cc1ccc(/N=C/c2c[nH]c3ccccc23)cc1C [Compound 13310]
14,4.1 µM,Brc1ccc2c(c1)NC(c1c[nH]c3ccc(Br)cc13)C2 (stereo not drawn) [Compound 13502]
15,4.09 µM,O=C(Nc1cccc(Br)c1O)c1cc2ccc(Br)cc2[nH]1 [Compound 9037]
16,15.5 µM,Oc1ccc2c(C3Nc4ccccc4C34CCCCC4)c[nH]c2c1 (stereo not drawn) [Compound 13551]
17,2.57 µM,Cc1ccc2c(-c3ccc4ccccc4n3)c[nH]c2c1 [Compound 13574]
18,4.5 µM,Brc1ccc2c(c1)CC(c1c[nH]c3ccc(Br)cc13)N2 (stereo not drawn) [Compound 13503]

# Same assay, conditions: eGFP IC50, LN-ARR2PBeGFP LNCaP cells, 0.1 nM R1881, 3 days incubation
row,SMILES,IC50
1,Oc1ccc(Cn2c(-c3ccc(O)cc3)nc3ccccc32)cc1 [Compound 13029],3.22 µM
